Values quoted from earlier work in US10927398B2, “Compositions for CYP450 phenotyping using saliva samples” (Concordia University, Inc., priority 2015, dated 2021).
Like-named read-outs stand apart in the source and are kept apart here.

What was measured:
[1] = Table of Exemplary Drugs, cited from earlier work
plasma protein = conditions: cited from earlier work
[2] = cited from earlier work
[3] = Table of Exemplary Drugs, CYP1A2
[4] = Table of Exemplary Drugs, CYP2C19
[5] = Table of Exemplary Drugs, CYP2D6
[6] = Table of Exemplary Drugs, CYP3A4
[7] = Table of Exemplary Drugs, CYP2C9

Compound: COc1cc2ncnc(Nc3ccc(F)c(Cl)c3)c2cc1OCCCN1CCOCC1 [Gefitinib (Iressa), Gefitinib]
- ORAL BIOAVAILABILITY ([1]; CYP3A4): 60%

Compound: CC(C)Cc1ccc(C(C)C(=O)O)cc1 (centres unmarked) [Ibuprofen]
- ORAL BIOAVAILABILITY ([1]; CYP2C9): 87-100%

Compound: CN(C)CCCN1c2ccccc2CCc2ccccc21 [Imipramine]
- PLASMA PROTEIN BINDING (plasma protein; [3]): 60-96% ^
- PLASMA PROTEIN BINDING (plasma protein; [4]): 89%
- PLASMA PROTEIN BINDING (plasma protein; [5]): 89%
- ORAL BIOAVAILABILITY ([1]; CYP1A2): 22-77%
- ORAL BIOAVAILABILITY ([1]; CYP2C19): 94-96%
- ORAL BIOAVAILABILITY ([1]; CYP2D6): 94-96%

Compound: COc1ccc2c(c1)N(C[C@H](C)CN(C)C)c1ccccc1S2 [Levomepromazine]
- HALF-LIFE [2, 5]: 15 h
- ORAL BIOAVAILABILITY ([1]; CYP2D6): 50-60%

Compound: CN(C)C(=O)C(CCN1CCC(O)(c2ccc(Cl)cc2)CC1)(c1ccccc1)c1ccccc1 [Loperamide (Imodium), Loperamide]
- HALF-LIFE [2, 6]: 9 to 14 h
- ORAL BIOAVAILABILITY ([1]; CYP3A4): 0.30%

Compound: COc1ccc2[nH]cc(CCNC(C)=O)c2c1 [Melatonin]
- HALF-LIFE [2, 3]: 0.583 to 0.833 h
- ORAL BIOAVAILABILITY ([1]; CYP1A2): 3-76%

Compound: CN1CCN2c3ncccc3Cc3ccccc3C2C1 (centres unmarked) [Mirtazapine]
- ORAL BIOAVAILABILITY ([1]; CYP2D6): 50%

Compound: Cc1cc2c(s1)Nc1ccccc1N=C2N1CCN(C)CC1 [Olanzapine]
- HALF-LIFE [2, 3]: 21 to 54 h
- ORAL BIOAVAILABILITY ([1]; CYP1A2): 87%

Compound: C[C@H](/C=C/[C@H](C)C(C)(C)O)[C@H]1CC[C@H]2/C(=C/C=C3C[C@@H](O)C[C@H](O)C3)CCC[C@]12C [Paricalcitol (Zemplar), Paricalcitol]
- HALF-LIFE [2, 6]: 5 to 7 h
- ORAL BIOAVAILABILITY ([1]; CYP3A4): 72%

Compound: OCCN1CCN(CCCN2c3ccccc3Sc3ccc(Cl)cc32)CC1 [Perphenazine]
- HALF-LIFE [2, 5]: 9 to 12 h
- ORAL BIOAVAILABILITY ([1]; CYP2D6): 20%

Compound: CC(C)NCC(O)COc1cccc2ccccc12 (centres unmarked) [Propranolol]
- HALF-LIFE [2, 3]: 4 h
- HALF-LIFE [2, 4]: 3 to 6 h
- HALF-LIFE [2, 5]: 3 to 6 h
- ORAL BIOAVAILABILITY ([1]; CYP1A2): 100%
- ORAL BIOAVAILABILITY ([1]; CYP2C19): 30-70%
- ORAL BIOAVAILABILITY ([1]; CYP2D6): 30-70%

Compound: C=C[C@H]1C[N@@]2CC[C@H]1C[C@@H]2[C@@H](O)c1ccnc2ccc(OC)cc12 [Quinidine]
- PLASMA PROTEIN BINDING (plasma protein; [6]): 50-88% ^
- ORAL BIOAVAILABILITY ([1]; CYP3A4): 70-80%

Compound: C=C[C@H]1C[N@@]2CC[C@H]1C[C@H]2[C@H](O)c1ccnc2ccc(OC)cc12 [Quinine]
- ORAL BIOAVAILABILITY ([1]; CYP3A4): 76-88%

Compound: CN1CC(=O)N2[C@H](c3ccc4c(c3)OCO4)c3[nH]c4ccccc4c3C[C@@H]2C1=O [Tadalafil (Cialis), Tadalafil]
- PLASMA PROTEIN BINDING (plasma protein; [6]): 94%
- HALF-LIFE [2, 6]: 15 to 35 h

Compound: CC/C(=C(\c1ccccc1)c1ccc(OCCN(C)C)cc1)c1ccccc1 [Tamoxifen]
- PLASMA PROTEIN BINDING (plasma protein; [3]): 99%
- PLASMA PROTEIN BINDING (plasma protein; [7]): 99%
- PLASMA PROTEIN BINDING (plasma protein; [5]): 99%
- PLASMA PROTEIN BINDING (plasma protein; [6]): 99%
- HALF-LIFE [2, 3]: ~120 to 170 h
- HALF-LIFE [2, 7]: 120 to 170 h
- HALF-LIFE [2, 5]: 120 to 170 h
- HALF-LIFE [2, 6]: 120 to 170 h

Compound: COc1cc([C@@H]2c3cc4c(cc3[C@@H](O[C@@H]3O[C@@H]5CO[C@@H](c6cccs6)O[C@H]5[C@H](O)[C@H]3O)[C@H]3COC(=O)[C@H]23)OCO4)cc(OC)c1O [Teniposide]
- PLASMA PROTEIN BINDING (plasma protein; [4]): >99%
- PLASMA PROTEIN BINDING (plasma protein; [6]): >99%
- HALF-LIFE [2, 4]: 5 h
- HALF-LIFE [2, 6]: 5 h

Compound: CC(C)(C)NC[C@H](O)COc1nsnc1N1CCOCC1 [Timolol]
- PLASMA PROTEIN BINDING (plasma protein; [5]): <10%
- ORAL BIOAVAILABILITY ([1]; CYP2D6): 90%

Compound: Clc1ccc2nsnc2c1NC1=NCCN1 [Tizanidine]
- PLASMA PROTEIN BINDING (plasma protein; [3]): 30%
- ORAL BIOAVAILABILITY ([1]; CYP1A2): 40%

Compound: CC1(C)O[C@@H]2[C@@H](CO[C@@]3(COS(N)(=O)=O)OC(C)(C)O[C@@H]23)O1 [Topiramate (Topamax), Topiramate]
- PLASMA PROTEIN BINDING (plasma protein; [6]): 15-41% ^
- ORAL BIOAVAILABILITY ([1]; CYP3A4): 80%

Compound: Cc1nnc2n1-c1ccc(Cl)cc1C(c1ccccc1Cl)=NC2 [Triazolam (Halcion), Triazolam]
- PLASMA PROTEIN BINDING (plasma protein; plasma): 89-94% ^
- HALF-LIFE ([2]; in vivo): 2.3 h

Compound: COc1ccc(C(CN(C)C)C2(O)CCCCC2)cc1 (centres unmarked) [Venlafaxine]
- PLASMA PROTEIN BINDING (plasma protein; [5]): 27-30% ^
- ORAL BIOAVAILABILITY ([1]; CYP2D6): 12.6%

Compound: CC[C@]1(O)C[C@@H]2CN(CCc3c([nH]c4ccccc34)[C@@](C(=O)OC)(c3cc4c(cc3OC)N(C)[C@H]3[C@@](O)(C(=O)OC)[C@H](OC(C)=O)[C@]5(CC)C=CCN6CC[C@]43[C@@H]65)C2)C1 [Vinblastine (Velbane), Vinblastine]
- PLASMA PROTEIN BINDING (plasma protein; [6]): 98-99.7% ^
- HALF-LIFE [2, 6]: 24.8 h

Compound: CC(c1cc2ccccc2s1)N(O)C(N)=O (centres unmarked) [Zileuton]
- PLASMA PROTEIN BINDING (plasma protein; [3]): 93%
- HALF-LIFE [2, 3]: 2.5 to 3.2 h

Compound: O=C1Cc2cc(CCN3CCN(c4nsc5ccccc45)CC3)c(Cl)cc2N1 [Ziprasidone (Geodon), Ziprasidone]
- HALF-LIFE [2, 6]: 7 h
- ORAL BIOAVAILABILITY ([1]; CYP3A4): 60%

Compound: CN(C)CCc1c[nH]c2ccc(C[C@H]3COC(=O)N3)cc12 [Zolmitriptan]
- PLASMA PROTEIN BINDING (plasma protein; [3]): 25%
- ORAL BIOAVAILABILITY ([1]; CYP1A2): ~40%
